Data: US20260167619A2, “INDOLINE COMPOUNDS AND DERIVATIVES AS EGFR INHIBITORS” (BeOne Medicines I GmbH, priority 2020, published 2026)

Tests used:
BaF3-WT cells = BaF3-WT cells (Homo sapiens, UniProt P00533); assay: Cell antiproliferation assay (CellTiter-Glo), BaF3-WT; type: cell-based; conditions: 48 h treatment, read-out: BaF3-WT IC50
Description: (§1) BaF3 cells are treated with compounds diluted in 0.2% DMSO, dilution is done according to the following protocol: (1) make 500× stock solution in DMSO from 5 mM by 5-fold dilution, total 8 doses were included; (2) make 10× solution in cell culture medium by transferring 2 μl 500× stock solution into 98 μl medium; (3) 10 μl of 10× solution is added to cells and incubate for 48 h.
(§2) After 48 h treatment, add 30 μl CellTiter-Glo reagent[CellTiter-Glo® 2.0, (Promega, Cat #G9242)] to each well; seal the plate and incubate 2 min at room temperature on a plate shaker; Allow the plate to incubate at room temperature for 10 minutes to stabilize the luminescent signal. Record luminescence on BMG PheraStar with luminescence protocol.
(§3) The IC50 value of a compound can be obtained by fitting the following equation
(§4) Wherein, X and Y are known values, and IC50, Hillslope, Top and Bottom are the parameters obtained by fitting with software. Y is the inhibition percentage (calculated from the equation), X is the concentration of the compound; IC50 is the concentration of the compound when the 50% inhibition is reached. The smaller the IC50 value is, the stronger the inhibitory ability of the compound is. Vice versa, the higher the IC50 value is, the weaker the ability the inhibitory ability of the compound is; Hillslope represents the slope of the fitted curve, generally around 1 *; Bottom represents the minimum value of the curve obtained by data fitting, which is generally 0%±20%; Top represents the maximum value of the curve obtained by data fitting, which is generally 100%±20%. The experimental data were fitted by calculating and analyzing with Dotmatics data analysis software.

BaF3-LR_TM_CS cells = BaF3-LR_TM_CS cells (Homo sapiens, UniProt P00533, T790M/C797S/L858R, cells depend on it); assay: Cell antiproliferation assay (CellTiter-Glo), BaF3-LR_TM_CS; type: cell-based; conditions: 48 h treatment, read-out: BaF3-LR_TM_CS IC50
Chain of BaF3-LR_TM_CS cells (P00533 whole entry T790M/C797S/L858R): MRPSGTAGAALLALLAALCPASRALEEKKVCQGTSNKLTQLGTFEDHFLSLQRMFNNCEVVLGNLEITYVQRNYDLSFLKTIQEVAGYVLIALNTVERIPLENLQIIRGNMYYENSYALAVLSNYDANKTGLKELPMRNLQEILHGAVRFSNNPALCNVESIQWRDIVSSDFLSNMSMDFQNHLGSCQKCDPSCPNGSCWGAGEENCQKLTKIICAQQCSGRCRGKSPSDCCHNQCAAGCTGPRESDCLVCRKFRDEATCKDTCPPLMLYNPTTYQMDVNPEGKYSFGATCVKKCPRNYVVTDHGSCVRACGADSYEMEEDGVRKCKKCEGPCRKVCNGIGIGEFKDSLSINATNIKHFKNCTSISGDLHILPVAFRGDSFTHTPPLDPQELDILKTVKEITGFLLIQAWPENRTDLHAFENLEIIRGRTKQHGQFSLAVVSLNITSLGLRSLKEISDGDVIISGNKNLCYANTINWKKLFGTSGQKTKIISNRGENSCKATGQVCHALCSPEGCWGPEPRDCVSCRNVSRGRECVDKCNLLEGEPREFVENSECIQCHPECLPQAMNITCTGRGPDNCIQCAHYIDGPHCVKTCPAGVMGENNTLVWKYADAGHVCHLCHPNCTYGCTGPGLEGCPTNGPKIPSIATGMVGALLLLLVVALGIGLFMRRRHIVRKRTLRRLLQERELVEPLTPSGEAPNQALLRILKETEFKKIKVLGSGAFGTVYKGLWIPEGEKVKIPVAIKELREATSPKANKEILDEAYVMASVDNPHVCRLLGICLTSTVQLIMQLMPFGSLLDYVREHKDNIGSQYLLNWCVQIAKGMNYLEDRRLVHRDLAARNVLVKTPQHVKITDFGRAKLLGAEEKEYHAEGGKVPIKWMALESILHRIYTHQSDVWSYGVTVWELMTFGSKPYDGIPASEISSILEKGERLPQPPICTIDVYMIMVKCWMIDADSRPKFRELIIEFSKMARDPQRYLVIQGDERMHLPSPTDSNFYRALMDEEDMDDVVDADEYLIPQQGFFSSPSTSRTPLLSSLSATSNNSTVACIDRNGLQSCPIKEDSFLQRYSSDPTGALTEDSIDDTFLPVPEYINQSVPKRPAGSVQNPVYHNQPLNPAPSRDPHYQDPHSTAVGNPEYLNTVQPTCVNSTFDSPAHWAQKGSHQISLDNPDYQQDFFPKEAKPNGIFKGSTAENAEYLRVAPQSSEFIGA
Description: as §1, §2, §3, §4

[1] = molecular target: EGFR(Dell9_T790M_C797S) (aa 669-1210, in house) (Homo sapiens, UniProt P00533, T790M/C797S, form not given); assay: Biochemical EGFR inhibition assay (TR-FRET), Del19/T790M/C797S mutant; conditions: ATP at Km, 15 min pre-incubation, 60 min reaction; read-out: Del_TM_CS (Km ATP) IC50
Chain of EGFR(Dell9_T790M_C797S) (aa 669-1210, in house) (P00533 with tags, fused parts or gaps DEL746-750/T790M/C797S, form open): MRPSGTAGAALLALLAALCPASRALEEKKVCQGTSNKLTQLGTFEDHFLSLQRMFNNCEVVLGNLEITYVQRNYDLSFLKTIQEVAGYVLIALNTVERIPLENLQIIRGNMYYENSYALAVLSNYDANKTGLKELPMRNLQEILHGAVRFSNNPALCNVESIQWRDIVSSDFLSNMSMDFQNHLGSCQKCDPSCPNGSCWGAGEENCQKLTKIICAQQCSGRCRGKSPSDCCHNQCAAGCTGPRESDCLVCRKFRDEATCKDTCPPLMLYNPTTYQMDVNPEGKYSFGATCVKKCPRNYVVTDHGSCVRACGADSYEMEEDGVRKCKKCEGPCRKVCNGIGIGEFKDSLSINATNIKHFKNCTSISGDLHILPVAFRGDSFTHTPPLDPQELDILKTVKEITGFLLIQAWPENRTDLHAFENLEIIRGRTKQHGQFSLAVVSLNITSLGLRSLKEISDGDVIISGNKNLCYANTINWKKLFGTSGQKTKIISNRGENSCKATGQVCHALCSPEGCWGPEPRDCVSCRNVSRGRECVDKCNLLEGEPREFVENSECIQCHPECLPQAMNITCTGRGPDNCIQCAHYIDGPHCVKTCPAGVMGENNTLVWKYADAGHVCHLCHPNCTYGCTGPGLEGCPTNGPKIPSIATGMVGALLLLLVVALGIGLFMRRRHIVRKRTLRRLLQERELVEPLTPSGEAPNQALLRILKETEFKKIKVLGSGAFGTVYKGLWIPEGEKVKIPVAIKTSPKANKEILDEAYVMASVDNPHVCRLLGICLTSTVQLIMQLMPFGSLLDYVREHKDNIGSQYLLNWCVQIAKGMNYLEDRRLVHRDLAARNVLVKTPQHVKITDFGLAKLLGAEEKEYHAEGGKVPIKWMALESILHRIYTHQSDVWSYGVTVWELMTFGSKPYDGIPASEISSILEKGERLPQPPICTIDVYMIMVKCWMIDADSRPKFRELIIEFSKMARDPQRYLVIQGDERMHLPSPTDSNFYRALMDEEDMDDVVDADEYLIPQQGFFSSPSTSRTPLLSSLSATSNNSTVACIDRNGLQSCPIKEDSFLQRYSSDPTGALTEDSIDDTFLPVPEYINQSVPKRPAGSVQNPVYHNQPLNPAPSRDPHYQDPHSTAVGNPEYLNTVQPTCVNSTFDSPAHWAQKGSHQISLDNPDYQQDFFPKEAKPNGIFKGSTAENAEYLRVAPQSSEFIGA
Outline: (§5)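 Biotin-poly GT phosphorylation detected with Eu-cryptate anti-phosphotyrosine (PT66) and XL665-streptavidin after EDTA/KF stop, 665/620 nm ratio. Enzyme and compound preincubated 15 min, then ATP at Km added for 60 min at room temperature. Four-parameter logistic fit gives IC50.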

[2] = molecular target: T1, EGFR(L858R_T790M_C797S) (aa695-end, Invitrogen) (Homo sapiens, UniProt P00533, C797S/L858R/T790M); assay: Biochemical EGFR inhibition assay (TR-FRET), L858R/T790M/C797S mutant; conditions: ATP at Km, 15 min pre-incubation, 60 min reaction; read-out: LR_TM_CS (Km ATP) IC50
T1 construct: purchased Invitrogen
T1 sequence (P00533 695-1210 T790M/C797S/L858R): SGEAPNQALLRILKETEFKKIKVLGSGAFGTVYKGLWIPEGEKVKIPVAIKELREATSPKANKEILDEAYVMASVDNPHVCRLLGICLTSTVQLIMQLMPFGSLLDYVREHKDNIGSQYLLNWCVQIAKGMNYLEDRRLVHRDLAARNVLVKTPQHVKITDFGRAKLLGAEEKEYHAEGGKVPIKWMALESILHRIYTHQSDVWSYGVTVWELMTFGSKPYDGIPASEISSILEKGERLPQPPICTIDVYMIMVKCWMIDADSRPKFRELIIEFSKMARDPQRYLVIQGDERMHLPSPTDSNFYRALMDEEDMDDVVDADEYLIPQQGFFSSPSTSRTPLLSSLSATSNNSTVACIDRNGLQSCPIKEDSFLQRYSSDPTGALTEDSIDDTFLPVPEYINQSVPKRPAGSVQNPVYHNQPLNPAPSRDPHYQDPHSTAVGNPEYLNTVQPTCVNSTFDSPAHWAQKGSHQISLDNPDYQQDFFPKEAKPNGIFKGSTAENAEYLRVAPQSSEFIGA
Outline: as §5

[3] = molecular target: T2, EGFR (aa668-1210, Invitrogen) (Homo sapiens, UniProt P00533); assay: Biochemical EGFR inhibition assay (TR-FRET), wild-type EGFR; conditions: ATP at Km, 15 min pre-incubation, 60 min reaction; read-out: WT (Km ATP) IC50
T2 construct: EGFR (aa668-1210, Invitrogen); purchased Invitrogen
T2 sequence (P00533 668-1210): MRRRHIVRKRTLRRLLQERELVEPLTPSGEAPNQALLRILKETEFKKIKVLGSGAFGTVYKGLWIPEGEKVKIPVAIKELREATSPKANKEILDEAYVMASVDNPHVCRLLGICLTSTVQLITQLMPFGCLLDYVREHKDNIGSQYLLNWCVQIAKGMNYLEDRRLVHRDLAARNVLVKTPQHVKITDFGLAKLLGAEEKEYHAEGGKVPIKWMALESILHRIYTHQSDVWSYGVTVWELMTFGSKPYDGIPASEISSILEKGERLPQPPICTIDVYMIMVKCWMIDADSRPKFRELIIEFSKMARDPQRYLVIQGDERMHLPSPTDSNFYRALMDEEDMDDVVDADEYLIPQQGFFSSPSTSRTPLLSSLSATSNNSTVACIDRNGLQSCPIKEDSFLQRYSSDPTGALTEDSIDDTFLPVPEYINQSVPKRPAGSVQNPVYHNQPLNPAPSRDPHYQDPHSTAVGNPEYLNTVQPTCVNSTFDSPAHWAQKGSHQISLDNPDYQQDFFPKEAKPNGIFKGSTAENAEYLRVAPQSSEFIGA
Outline: as §5

BaF3-Del_TM_CS cells = BaF3-Del_TM_CS cells (Homo sapiens, UniProt P00533, T790M/C797S, cells depend on it, form not given); assay: Cell antiproliferation assay (CellTiter-Glo), BaF3-Del_TM_CS; type: cell-based; conditions: 48 h treatment, read-out: BaF3-Del_TM_CS IC50
Chain of BaF3-Del_TM_CS cells (P00533 with tags, fused parts or gaps DEL746-750/T790M/C797S, form open): as the sequence (P00533 with tags, fused parts or gaps DEL746-750/T790M/C797S, form open) above
Description: as §1, §2, §3, §4

SMILES	GI50 (BaF3-WT cells)	GI50 (BaF3-LR_TM_CS cells)	IC50 [1]	IC50 [2]	IC50 [3]	GI50 (BaF3-Del_TM_CS cells)
COc1cc(N2CCC(N3CCN(C)CC3)CC2)ccc1Nc1ncc(Cl)c(Nc2ccc(F)c3c2N(S(C)(=O)=O)CC3)n1 [Example 1, 5-chloro-N^4-(4-fluoro-1-(methylsulfonyl)indolin-7-yl)-N^2-(2-methoxy-4-(4-(4-methylpiperazin-1-yl)piperidin-1-yl)phenyl)pyrimidine-2,4-diamine]	635 nM	152 nM	0.13 nM	0.1 nM	0.55 nM	48.2 nM
COc1cc(N2CCC(N3CCN(C)CC3)CC2)ccc1Nc1ncc(Cl)c(Nc2ccc(Br)c3c2N(S(C)(=O)=O)CC3)n1 [Example 2, N^4-(4-bromo-1-(methylsulfonyl)indolin-7-yl)-5-chloro-N^2-(2-methoxy-4-(4-(4-methylpiperazin-1-yl)piperidin-1-yl)phenyl)pyrimidine-2,4-diamine]	511 nM	66.1 nM	0.36 nM	0.48 nM	0.64 nM	14.6 nM
COc1cc(N2CCC(N3CCN(C)CC3)CC2)ccc1Nc1ncc(Cl)c(Nc2ccc(C)c3c2N(S(C)(=O)=O)CC3)n1 [Example 4, 5-chloro-N^2-(2-methoxy-4-(4-(4-methylpiperazin-1-yl)piperidin-1-yl)phenyl)-N^4-(4-methyl-1-(methylsulfonyl)indolin-7-yl)pyrimidine-2,4-diamine]	466 nM	57.2 nM	0.17 nM	0.27 nM	0.49 nM	12 nM
COc1cc(N2CCC(N3CCN(C)CC3)CC2)ccc1Nc1ncc(Cl)c(Nc2cc(C)cc3c2N(S(C)(=O)=O)CC3)n1 [Example 5, 5-chloro-N^2-(2-methoxy-4-(4-(4-methylpiperazin-1-yl)piperidin-1-yl)phenyl)-N^4-(5-methyl-1-(methylsulfonyl)indolin-7-yl)pyrimidine-2,4-diamine]	2320 nM	1290 nM	159 nM	162 nM	311 nM	971 nM
CCCS(=O)(=O)N1CCc2cccc(Nc3nc(Nc4ccc(N5CCC(N6CCN(C)CC6)CC5)cc4OC)ncc3Cl)c21 [Example 6, 5-chloro-N^2-(2-methoxy-4-(4-(4-methylpiperazin-1-yl)piperidin-1-yl)phenyl)-N^4-(1-(propylsulfonyl)indolin-7-yl)pyrimidine-2,4-diamine]	1850 nM	221 nM	5.1 nM	1.8 nM	8.1 nM	233 nM
COc1cc(N2CCC(N3CCN(C)CC3)CC2)ccc1Nc1ncc(Cl)c(Nc2cccc3c2N(S(=O)(=O)C2CC2)CC3)n1 [Example 7, 5-chloro-N^4-(1-(cyclopropylsulfonyl)indolin-7-yl)-N^2-(2-methoxy-4-(4-(4-methylpiperazin-1-yl)piperidin-1-yl)phenyl)pyrimidine-2,4-diamine]	457 nM	81.6 nM	0.57 nM	0.61 nM	1.8 nM	53.9 nM
COc1cc(N2CCC(N3CCN(C)CC3)CC2)ccc1Nc1ncc(Cl)c(Nc2cccc3c2N(S(=O)(=O)CCc2ccccc2)CC3)n1 [Example 8, 5-chloro-N^2-(2-methoxy-4-(4-(4-methylpiperazin-1-yl)piperidin-1-yl)phenyl)-N^4-(1-(phenethylsulfonyl)indolin-7-yl)pyrimidine-2,4-diamine]	1860 nM	730 nM	121 nM	21 nM	14 nM	630 nM
COc1cc(N2CCC(N3CCN(C)CC3)CC2)ccc1Nc1ncc(Cl)c(Nc2cccc3c2N(S(=O)(=O)C(C)(C)C)CC3)n1 [Example 9, N^4-(1-(tert-butylsulfonyl)indolin-7-yl)-5-chloro-N^2-(2-methoxy-4-(4-(4-methylpiperazin-1-yl)piperidin-1-yl)phenyl)pyrimidine-2,4-diamine]	1640 nM	428 nM	186 nM	13 nM	187 nM	455 nM
COc1cc(N2CCC(N3CCN(C)CC3)CC2)ccc1Nc1ncc(Cl)c(Nc2cccc3c2N(S(C)(=O)=O)CCC3)n1 [Example 10, 5-chloro-N^2-(2-methoxy-4-(4-(4-methylpiperazin-1-yl)piperidin-1-yl)phenyl)-N^4-(1-(methylsulfonyl)-1,2,3,4-tetrahydroquinolin-8-yl)pyrimidine-2,4-diamine]	1870 nM	143 nM	0.39 nM	1.5 nM	2.6 nM	46 nM
COc1cc(N2CCC(N3CCN(C)CC3)CC2)ccc1Nc1ncc(Cl)c(Nc2cccc3c2N(S(=O)(=O)CC2CC(F)(F)C2)CC3)n1 [Example 11, 5-chloro-N^4-(1-(((3,3-difluorocyclobutyl)methyl)sulfonyl)indolin-7-yl)-N^2-(2-methoxy-4-(4-(4-methylpiperazin-1-yl)piperidin-1-yl)phenyl)pyrimidine-2,4-diamine]	2280 nM	377 nM	38 nM	5.5 nM	37 nM	453 nM
COc1cc(N2CCC(N3CCN(C)CC3)CC2)ccc1Nc1ncc(Cl)c(Nc2cccc3c2N(S(=O)(=O)N(C)C)CC3)n1 [Example 13, 7-((5-chloro-2-((2-methoxy-4-(4-(4-methylpiperazin-1-yl)piperidin-1-yl)phenyl)amino)pyrimidin-4-yl)amino)-N,N-dimethylindoline-1-sulfonamide]	897 nM	294 nM	6.2 nM	1.3 nM	13 nM	158 nM
CNS(=O)(=O)N1CCc2cccc(Nc3nc(Nc4ccc(N5CCC(N6CCN(C)CC6)CC5)cc4OC)ncc3Cl)c21 [Example 14, 7-((5-chloro-2-((2-methoxy-4-(4-(4-methylpiperazin-1-yl)piperidin-1-yl)phenyl)amino)pyrimidin-4-yl)amino)-N-methylindoline-1-sulfonamide]	193 nM	14.3 nM	0.59 nM	0.24 nM	1.4 nM	8.76 nM
COc1cc(N2CCC(N3CCN(C)CC3)CC2)ccc1Nc1ncc(Cl)c(Nc2cccc3c2N(C(=O)N(C)C)CC3)n1 [Example 15, 7-((5-chloro-2-((2-methoxy-4-(4-(4-methylpiperazin-1-yl)piperidin-1-yl)phenyl)amino)pyrimidin-4-yl)amino)-N,N-dimethylindoline-1-carboxamide]	4120 nM	2030 nM	2200 nM	369 nM	1360 nM	1800 nM
CNC(=O)N1CCc2cccc(Nc3nc(Nc4ccc(N5CCC(N6CCN(C)CC6)CC5)cc4OC)ncc3Cl)c21 [Example 16, 7-((5-chloro-2-((2-methoxy-4-(4-(4-methylpiperazin-1-yl)piperidin-1-yl)phenyl)amino)pyrimidin-4-yl)amino)-N-methylindoline-1-carboxamide]	1980 nM	1120 nM	87 nM	38 nM	286 nM	802 nM
COc1cc(N2CCC(N3CCN(C)CC3)CC2)c(C)cc1Nc1nc(N)c(Br)c(Nc2cccc3c2N(S(C)(=O)=O)CC3)n1 [Example 197, 5-bromo-N2-(2-methoxy-5-methyl-4-(4-(4-methylpiperazin-1-yl)piperidin-1-yl)phenyl)-N4-(1-(methylsulfonyl)indolin-7-yl)pyrimidine-24,6-triamine]	–	–	2.9 nM	1.2 nM	1.2 nM	–
